# In patent US6667161B1, “Chromogenic substrates of sialidase of bacterial, viral, protozoa, and vertebrate origin and methods of making and using the same” (Ibbex, Inc., priority 1997, dated 2003):
# Legend:
# [1] = molecular target: purified recombinant bacterial sialidase from Salmonella T. (Salmonella typhimurium, UniProt P29768); assay: Biochemical evaluation of chromogenic substrate with bacterial sialidase; conditions: substrate ca. 0.7 mM, 30 minutes
# [2] = molecular target: viral sialidase from whole influenza virus A1PR/8/34 (Influenza A virus, UniProt P03468); assay: Biochemical evaluation of chromogenic substrate with viral sialidase; conditions: substrate ca. 0.7 mM, 30 minutes
# viral sialidase from whole influenza virus A1PR/8/34, sequence (P03468 whole entry, looked up): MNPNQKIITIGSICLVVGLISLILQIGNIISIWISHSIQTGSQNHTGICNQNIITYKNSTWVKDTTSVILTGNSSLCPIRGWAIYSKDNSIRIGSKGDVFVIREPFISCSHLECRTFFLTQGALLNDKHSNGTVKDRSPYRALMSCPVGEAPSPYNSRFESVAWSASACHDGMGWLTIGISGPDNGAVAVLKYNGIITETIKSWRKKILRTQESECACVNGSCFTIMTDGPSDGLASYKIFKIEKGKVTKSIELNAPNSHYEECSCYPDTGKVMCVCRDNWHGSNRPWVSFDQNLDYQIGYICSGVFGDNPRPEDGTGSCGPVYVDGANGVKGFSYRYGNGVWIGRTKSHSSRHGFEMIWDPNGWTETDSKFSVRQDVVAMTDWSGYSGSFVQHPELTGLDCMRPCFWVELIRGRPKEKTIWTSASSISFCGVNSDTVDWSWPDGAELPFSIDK
# Description: Biochemical evaluation for the chromogenic product of viral sialidase substrate compounds. Sialidase can be obtained from, for example, purified recombinant bacterial sialidase from Salmonella T., whole influenza virus, or culture medium containing secreted human sialidase from the 2CFSME cell line. The sialidase preparation is added to a buffer of sodium acetate (0.05 to 0.5 M; pH 5.0-6.0), and the substrate compound is provided at about 0.2-1.0 mM concentration. It should be noted that numerous other examples of buffer solution may be used, including organic acids such as citrate buffers, for example, as well as inorganic buffers, including potassium, sodium, calcium, and other such salts thereof. […] The color change is readily visible. The color change can be quantitated spectrophotometrically by measuring the light absorption of the reaction mixture. […]
# E. Biochemical Evaluation of a Chromogenic Substrate Product with Bacterial Sialidase and with Viral Sialidase. […] The reaction progress was quantitated by measuring the light absorption of the reaction mixture. The light absorption was measured with a spectrophotometer at 517 nm with a 1 cm path cell. In the experiment conducted with bacterial sialidase, the absorbance was measured as 2.448. In the experiment conducted with viral sialidase, the absorbance was measured as 1.168. […]
# [3] = pH 6.0, 37° C., after addition of sodium hydroxide (pH>11.0)
# purified recombinant bacterial sialidase from Salmonella T., sequence (P29768 whole entry): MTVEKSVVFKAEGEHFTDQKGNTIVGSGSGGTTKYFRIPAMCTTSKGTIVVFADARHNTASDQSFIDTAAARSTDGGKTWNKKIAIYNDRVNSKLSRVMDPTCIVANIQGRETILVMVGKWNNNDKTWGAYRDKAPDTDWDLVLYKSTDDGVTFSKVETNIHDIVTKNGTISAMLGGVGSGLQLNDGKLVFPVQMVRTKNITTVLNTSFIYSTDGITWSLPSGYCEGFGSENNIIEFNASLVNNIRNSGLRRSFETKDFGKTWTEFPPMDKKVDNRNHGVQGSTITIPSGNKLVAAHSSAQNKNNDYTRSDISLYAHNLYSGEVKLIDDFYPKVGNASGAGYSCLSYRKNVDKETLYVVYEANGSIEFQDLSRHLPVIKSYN
structure (smiles),measurement,setting,value
COC(=O)C1(Oc2cc(C)c(C3(c4cc(C(C)C)c(O)cc4C)OC(=O)c4ccccc43)cc2C(C)C)CC(OC)C(NC(C)=O)C([C@H](N)[C@H](O)CO)O1 (stereo partly shown) [Compound 9c],absorbance (light absorption of the reaction mixture),"[1]; 517 nm, 1 cm path cell, potassium acetate 0.5 M pH 6.0, 37° C., then sodium hydroxide 1.0 M",2.448
same,visible color change,[1]; [3],color change to blue was readily visible
same,absorbance (light absorption of the reaction mixture),"[2]; 517 nm, 1 cm path cell, potassium acetate 0.5 M pH 6.0, 37° C., then sodium hydroxide 1.0 M, reaction not allowed to proceed to completion",1.168
same,visible color change,[2]; [3],color change to blue was readily visible
